Source: PubChem BioAssay (NCI)
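Interpolation was linear, between the two tested concentrations surrounding the appropriate level; five concentrations were tested over 48 hours in 96-well plates. TGI is the concentration that stops growth completely.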

Columns and labels:
Test in all cases: NCI anticancer screen, dose series, 48 h
[1] = system: SK-OV-3 ovarian
[2] = system: EKVX NSCLC
[3] = system: OVCAR-3 ovarian
[4] = system: XF 498 CNS
[5] = system: TK-10 renal
[6] = system: SNB-19 CNS
[7] = system: OVCAR-4 ovarian
[8] = system: HOP-92 NSCLC
[9] = system: SF-295 CNS
[10] = system: NCI-H226 lung
[11] = system: HCC-2998 colon
[12] = system: SK-MEL-28 melanoma
[13] = system: NCI-H522 lung
[14] = system: UACC-62 melanoma
[15] = system: CCRF-CEM leukemia
[16] = system: COLO 205 colon
[17] = system: HT29 colon
[18] = system: K-562 leukemia
[19] = system: SK-MEL-2 melanoma
[20] = system: HCT-15 colon
[21] = system: ACHN renal
[22] = system: SK-MEL-5 melanoma
[23] = system: IGROV1 ovarian
[24] = system: HOP-62 NSCLC
[25] = system: SF-539 CNS
[26] = system: KM12 colon
[27] = system: KM20L2 colon
[28] = system: LOX IMVI melanoma
[29] = system: OVCAR-8 ovarian
[30] = system: A549 NSCLC
[31] = system: M19-MEL melanoma
[32] = system: SW-620 colon
[33] = system: HCT-116 colon
[34] = system: UACC-257 melanoma
[35] = system: SR leukemia
[36] = system: LXFL 529 NSCLC
[37] = system: UO-31 renal
[38] = system: SN12C renal
[39] = system: RPMI-8226 leukemia
[40] = system: 786-0 renal
[41] = system: HL-60(TB) leukemia
[42] = system: M14 melanoma
[43] = system: MOLT-4 leukemia
[44] = system: NCI-H23 lung
[45] = system: SF-268 CNS
[46] = system: OVCAR-5 ovarian
[47] = system: NCI-H460 lung
[48] = system: U251 CNS
[49] = system: MALME-3M melanoma
[50] = system: SNB-75 CNS
[51] = system: DMS 273 small cell lung
[52] = system: HOP-18 NSCLC
[53] = system: SNB-78 CNS
[54] = system: CAKI-1 renal
[55] = system: A498 renal
[56] = system: DLD-1 colon
[57] = system: DMS 114 small cell lung
[58] = system: RXF 393 renal

`N#Cc1ccccc1NC(=O)/C(=N\N)C(C(=O)c1ccncc1)C1OC(=O)c2ccccc21` (configuration not stated) gave a TGI [1] of over 100 µM, a TGI [2] of over 100 µM and a TGI [3] of over 100 µM. It also gave a TGI [4] of over 100 µM, a TGI [5] of over 100 µM and a TGI [6] of over 100 µM. It also gave a TGI [7] of over 100 µM, a TGI [8] of over 100 µM and a TGI [9] of over 100 µM. For the same compound, the TGI [10] was over 100 µM, the TGI [11] was over 100 µM and the TGI [12] was over 100 µM. The TGI [13] was over 100 µM, the TGI [14] was over 100 µM and the TGI [15] was over 100 µM. It also gave a TGI [16] of over 100 µM, a TGI [17] of over 100 µM and a TGI [18] of over 100 µM. The TGI [19] was over 100 µM, the TGI [20] was over 100 µM and the TGI [21] was over 100 µM. The TGI [22] was over 100 µM, the TGI [23] was over 100 µM and the TGI [24] was over 100 µM. It also gave a TGI [25] of over 100 µM, a TGI [26] of over 100 µM and a TGI [27] of over 100 µM. For the same compound, the TGI [28] was over 100 µM, the TGI [29] was over 100 µM and the TGI [30] was over 100 µM. It also gave a TGI [31] of over 100 µM, a TGI [32] of over 100 µM and a TGI [33] of over 100 µM. For the same compound, the TGI [34] was over 100 µM, the TGI [35] was over 100 µM and the TGI [36] was over 100 µM. The TGI [37] was over 100 µM, the TGI [38] was over 100 µM and the TGI [39] was over 100 µM. For the same compound, the TGI [40] was over 100 µM, the TGI [41] was over 100 µM and the TGI [42] was over 100 µM. For the same compound, the TGI [43] was over 100 µM, the TGI [44] was over 100 µM and the TGI [45] was over 100 µM. It also gave a TGI [46] of over 100 µM, a TGI [47] of over 100 µM and a TGI [48] of over 100 µM. For the same compound, the TGI [49] was over 100 µM.

With `COc1ccccc1/C=C(\C#N)c1ccccc1` the TGI [50] was 60 µM, the TGI [1] was 84.3 µM and the TGI [3] was 51.2 µM. For the same compound, the TGI [5] was 95.6 µM, the TGI [7] was over 100 µM and the TGI [8] was over 100 µM. For the same compound, the TGI [9] was over 100 µM, the TGI [10] was over 100 µM and the TGI [11] was over 100 µM. For the same compound, the TGI [51] was 50 µM, the TGI [12] was over 100 µM and the TGI [13] was 44.7 µM. It also gave a TGI [14] of over 100 µM, a TGI [15] of 55.2 µM and a TGI [16] of 32.4 µM. It also gave a TGI [17] of over 100 µM, a TGI [18] of 33.8 µM and a TGI [19] of 94.8 µM. For the same compound, the TGI [20] was 67.4 µM, the TGI [21] was over 100 µM and the TGI [22] was 40.9 µM. For the same compound, the TGI [23] was over 100 µM, the TGI [24] was over 100 µM and the TGI [25] was over 100 µM. It also gave a TGI [26] of over 100 µM, a TGI [27] of over 100 µM and a TGI [28] of over 100 µM. For the same compound, the TGI [29] was over 100 µM, the TGI [30] was over 100 µM and the TGI [52] was over 100 µM. For the same compound, the TGI [31] was over 100 µM, the TGI [32] was over 100 µM and the TGI [33] was over 100 µM. For the same compound, the TGI [34] was over 100 µM, the TGI [35] was 48.8 µM and the TGI [53] was over 100 µM. The TGI [36] was over 100 µM, the TGI [54] was over 100 µM and the TGI [37] was 97.5 µM. It also gave a TGI [38] of over 100 µM, a TGI [39] of over 100 µM and a TGI [40] of 42.5 µM. For the same compound, the TGI [55] was 66.1 µM, the TGI [42] was 99.4 µM and the TGI [56] was over 100 µM. It also gave a TGI [43] of 97.3 µM, a TGI [44] of over 100 µM and a TGI [45] of over 100 µM. It also gave a TGI [57] of 46.2 µM, a TGI [46] of over 100 µM and a TGI [47] of 74.1 µM. It also gave a TGI [58] of 69.3 µM and a TGI [48] of over 100 µM.
